Data on 5 compounds can be found in paper PMC11296140, “Cardenolides in the defensive fluid of adult large milkweed bugs have differential potency on vertebrate and invertebrate predator Na^+/K^+-ATPases” (Royal Society Open Science, 2024).

Where only a bound is given, the exact number is not on record here.

The term IC50 denotes the point on the concentration scale where inhibition reaches its midpoint.

Test [1] concerns the target giant Asian mantid Na^+/K^+-ATPase. The test can be described thus: Na+/K+-ATPase inhibition assay, giant Asian mantid neural tissue lysate. It counts as biochemical, Hierodula membranacea. As to conditions: for IC50: giant Asian mantid enzyme, toxicity criteria of Agrawal et al.; for potency compared with the porcine enzyme (in words): giant Asian mantid vs pig, log10 IC50, Tukey post hoc. As for the experimental part:
Hierodula membranacea were obtained from M&M Wust—Mantids and More (Muhlheim am Main, Germany). Twenty-five individuals were obtained at the L4 stage and reared in individually double-ventilated boxes (19 × 19 × 19 cm). We provided them with greenbottle fly pupae as a food source, twice per week (two pupae during the nymph stages and three when they reached the adult stage). Mantids were sprayed with water every 2 days for hydration. The mantids were kept in an incubator (Snijders Scientific premium, Tilburg, The Netherlands, with an Imago 500 JUMO controller, Fulda, Germany) at 28°C and 70% humidity with an 18 L : 6 D cycle and a temperature of 18°C at night.
(§1) Preparations of Na^+/K^+-ATPases were obtained by homogenization of dissected brains (T. castanotis, zebra finch, and H. membranacea, giant Asian mantid), from commercially obtained enzyme (Sus scrofa domesticus, domestic pig), and expression of ATP1A1 and ATP1B1 subunits of the Na^+/K^+-ATPase of the black-headed grosbeak in insect Sf9 cells (Invitrogen).
(§2) We sliced and weighed 5 mg from three different zebra finch brains and dissected the head capsule of five female giant Asian mantids to obtain the central body with intact optic lobes. Neural tissues were transferred to a 1 ml glass grinder (Wheaton Dounce tissue grinder, 1 ml, no. 357538) and homogenized in 500 μl distilled water. Zebra finch homogenates were transferred to a 50 ml Falcon tube on ice and resuspended with 15 ml resuspension buffer (0.25 M sucrose, 2 mM ethylenediaminetetraacetic acid and 25 mM HEPES/Tris; pH 7.0). Samples were sonicated at 85 W (Fisherbrand Model 120 Sonic Dismembrator, no. 12337338) for three 45 s intervals at 0°C, followed by centrifugation for 30 min at 10 000g (Sigma 3–18K, no. 10290) at 4°C to remove debris. The supernatant was collected and further centrifuged for 60 min at 100 000g at 4°C (Optima Max-XP tabletop ultracentrifuge, no. 393315) to isolate the membrane fraction. The pelleted membranes were washed twice and resuspended in 1 ml Milli-Q water (Milli-Q direct water purification system, Merck, no. C85358) and stored at −20°C. Giant Asian mantid homogenates were frozen to −80°C and then freeze-dried overnight and then resuspended in 1800 μl distilled water. Each sample was divided into aliquots of 600 μl and sonicated twice in an ice water bath (Bandelin Sonorex, no. Z659584) for 5 min. Samples were centrifuged at 3000 r.p.m. for 5 min and used to perform functional assays.
(§3) The inhibitory effects of increasing concentrations of four cardenolides (ouabain, glucopyranosyl frugoside, frugoside and gofruside) on the black-headed grosbeak, zebra finch and giant Asian mantids were determined by photometric measurement of inorganic phosphate released from enzymatic ATP hydrolysis while subtracting the background ATPase activity following Petschenka et al. (see the electronic supplementary material, method S2e). The assessment of the inhibitory impact of glucopyranosyl calotropin was limited to the black-headed grosbeak and zebra finch species. This stemmed from the restricted availability of the compound, which only permitted testing on two predator pumps. The inhibitory effects of the five compounds for the porcine ATPase were taken from Rubiano-Buitrago et al. for comparison. All assays were run in three biological replicates, and the average of two technical replicates of each biological replicate was used for subsequent statistical analyses. Raw data are available in the data repository.
For cardenolide inhibition, we converted the calibrated absorbance values to the percentage of non-inhibited Na^+/K^+-ATPase activity based on measurements from the control wells. We fitted inhibition curves by nonlinear fitting using a four-parameter logistic curve, with the top and bottom asymptotes set to 100 and 0, respectively, using the nlsLM function of the minipack.lm library in R [47]. […]

Test [2] deals with black-headed grosbeak Na^+/K^+-ATPase. The test can be described thus: Na+/K+-ATPase inhibition assay, recombinant black-headed grosbeak enzyme expressed in Sf9 cells. The format is biochemical, Pheucticus melanocephalus. As to conditions: for IC50: black-headed grosbeak enzyme, toxicity criteria of Agrawal et al.; for times less inhibitory than for pig: black-headed grosbeak vs porcine enzyme, IC50 fold difference.
Excerpt: Pheucticus melanocephalus (black-headed grosbeak) ATPA1 and ATPB1 genes were synthesised (GeneArt; Invitrogen), codon optimised for Spodoptera frugiperda and cloned by GeneArt (Invitrogen) in pFastBac Dual plasmid with ATP1B1 under p10 promoter and ATP1A1 under PPH promoter. Final plasmids were verified by sequencing (accession number 196465).
as §1
Recombinant Na^+/K^+-ATPases were expressed after infection of Sf9 cells with P0 virus stock following the optimized baculovirus expression system described by Scholz and Suppmann. The cells were pelleted by centrifugation, resuspended and sonicated to disrupt membranes and further centrifuged to remove cell debris. Cell membranes were pelleted by ultracentrifugation of the supernatant and finally resuspended in Milli-Q water (electronic supplementary material, method S2). Prior to the Na^+/K^+-ATPase inhibition assay, the black-headed grosbeak protein was verified by SDS–PAGE/Western blotting following the methods of Mohammadi et al. (see the electronic supplementary material, figure S1) and quantified by ELISA (see the electronic supplementary material, method S2d).
as §3
For cardenolide inhibition, we converted the calibrated absorbance values to the percentage of non-inhibited Na^+/K^+-ATPase activity based on measurements from the control wells. We fitted inhibition curves by nonlinear fitting using a four-parameter logistic curve, with the top and bottom asymptotes set to 100 and 0, respectively, using the nlsLM function of the minipack.lm library in R [47]. From this we calculated the half maximal inhibitory concentration (IC50) values for each biological replicate. We compared the log10 IC50 values of individual cardenolides for each Na^+/K^+-ATPase enzyme using a linear model, testing the interaction between predator enzyme and cardenolide, and compared the inhibitory capacity of each compound pairwise using Tukey’s post hoc test. We calculated the fold differences between the IC50 values of individual cardenolides for black-headed grosbeak, zebra finch and giant Asian mantid versus the IC50 values on the porcine enzyme.

In test [3] the test system is O. fasciatus target site Na^+/K^+-ATPase. As to conditions: cited from earlier work.
The target of test [4] is zebra finch Na^+/K^+-ATPase. The test can be described thus: Na+/K+-ATPase inhibition assay, zebra finch brain lysate. It counts as biochemical, Taeniopygia castanotis. As to conditions: for IC50: zebra finch enzyme, toxicity criteria of Agrawal et al. As for the experimental part: Taeniopygia castanotis (zebra finch) brain tissues were obtained from a breeding colony at the University of St Andrews, UK, under Home Office licence 70/8159. Individual brains were dissected and flash-frozen on dry ice before being shipped from St Andrews to the Max Planck Institute for Chemical Ecology, Jena, Germany, where they were kept at −80°C until used in the assays.
as §1, §2, §3
For cardenolide inhibition, we converted the calibrated absorbance values to the percentage of non-inhibited Na^+/K^+-ATPase activity based on measurements from the control wells. We fitted inhibition curves by nonlinear fitting using a four-parameter logistic curve, with the top and bottom asymptotes set to 100 and 0, respectively, using the nlsLM function of the minipack.lm library in R [47]. From this we calculated the half maximal inhibitory concentration (IC50) values for each biological replicate. […]

[5] abbreviates: zebra finch vs porcine enzyme, IC50 fold difference.

On to `C[C@H]1OC(O[C@H]2CC[C@@]3(CO)[C@H](CC[C@@H]4[C@@H]3CC[C@]3(C)[C@@H](C5=CC(=O)OC5)CC[C@]43O)C2)[C@H](O)[C@H](O)[C@@H]1O` (stereo partly drawn) [frugoside], for which the IC50 in test [1] is under 1 µM; in test [2], under 10 µM; in test [4], under 1 µM. Also, the “potency compared with the porcine enzyme (in words)” value in test [1] was “not significantly different in potency”. The “times less inhibitory than for pig” value in test [2] was 6.8 times; in test [4] (setting [5]), 2.6 times. Further, the “potency towards the bug's own target site (in words)” value in test [3] was “the most inhibitory”.
For `C[C@@H]1O[C@@H](O[C@H]2C[C@@H](O)[C@]3(CO)[C@H]4[C@H](O)C[C@]5(C)[C@@H](C6=CC(=O)OC6)CC[C@]5(O)[C@@H]4CC[C@]3(O)C2)[C@H](O)[C@H](O)[C@H]1O` [ouabain, reference compound], the “times less inhibitory than for pig” value in test [1] (giant Asian mantid vs porcine enzyme, IC50 fold difference) is given as 4.3 times; in test [2], 18.9 times; in test [4] (setting [5]) it was 6.8 times.
Regarding glucopyranosyl calotropin, the “times less inhibitory than for pig” value in test [2] was 15.1 times; in test [4] (setting [5]), 3.4 times. The “inhibition of the enzyme (in words)” value in test [4] (sensitive vertebrate enzymes) is reported as “effective inhibitor”.
Take glucopyranosyl frugoside: the “times more inhibitory than to pig” value in test [1] (giant Asian mantid vs porcine enzyme, IC50 fold difference, not significant at alpha 0.05) is reported as 2.3 times; in test [4] (setting [5]), 28.3 times. Moreover, the half-maximal inhibitory concentration (IC50) is under 10 µM in test [2] and under 1 µM in test [4]. For the same compound, the “potency compared with the porcine enzyme (in words)” value in test [2] (black-headed grosbeak vs pig, log10 IC50, Tukey post hoc) is recorded as “not significantly different in potency”.
gofruside: in test [1], the IC50 was under 1 µM and the “potency compared with the porcine enzyme (in words)” value was “did not differ in inhibitory potential”. Also, the “times less inhibitory than for pig” value in test [2] was determined as 352.5 times. Besides, the “inhibition of the enzyme (in words)” value in test [2] (putatively resistant vertebrate predator) is reported as “weakest inhibitor”. Moreover, the “potency towards the bug's own target site (in words)” value in test [3] is “among the weakest inhibitors”. Moreover, the “times less inhibitory than for pig” value in test [4] (setting [5]) is 12.7 times.
